# Patent US6806267B1, “Apoptosis-inducing compounds” (priority 1998, dated 2004)
# Assays:
# K562 cells = test: Apoptosis in K562 cells, cytospin and staining; type: cell-based, human; conditions: K562, 200 μM 1 hour, then PBOX-6 10 μM 16 hours
# JNK1 and JNK2 = type: cell-based, human; conditions: K562
# Jurkat cells [1] = type: cell-based, human; conditions: 200 μM
# Experimental: This assay was set up as described by Kohn et al., 1976 with the following modifications.
# Cells were seeded at 0.4×10^6 cells/ml and were in the logarithmic phase of growth. […] Cells harvested for the experiments were at a density of 2×10^6 cells/ml.
# Cells (1×10^6) were labelled with [^3H] thymidine (sp. act. 2 Ci/mmol) (0.2 μCi/ml) and 1 μM unlabelled thymidine, and incubated for 20 hr. Cells were harvested by centrifugation at 500×g for 5 mins following by two washes in PBS and the pellet was resuspended in 3 ml of PBS. Cells were aliquoted into 1 ml amounts in a 24 well plate and allowed to recover for 1 hr at 37° C. before treating with indicated compounds. Following treatment, cells were washed once in PBS and resuspended in 250 μl of PBS. An aliquot of cells (200 μl) was loaded directly onto a 25 mm diameter glass fiber filter, pore size of 0.2 μM. The cells were lysed on the filter by the addition of 5 ml lysis buffer (2% (w/v) SDS, 10 mM disodium EDTA (pH 10) supplemented with 0.5 mg/ml proteinase K. The lysis buffer was allowed to flow slowly through the filter without suction. Filters were washed using 3 ml wash solution (0.02M Na3EDTA pH 10) allowing it to flow without suction. Filters were eluted in the dark with an alkaline solution (0.04M EDTA plus tetrapropylammonium hydroxide (10% in H2O ) added in the amount required to give pH 12.1). The elution apparatus consisted of a filter funnel with output tubing passing through a peristaltic pump to a collector. Elution took place overnight at a flow rate of 0.05 ml/min. Following elution, filters were treated with 0.4 ml HCl (1N) for 1 hr at 70° C. followed by 2.5 ml NaOH (0.4N) for 30 min at room temp. Scintillation fluid (10 ml) was added and radioactivity remaining on the filters was determined by scintillation counting.
# Jurkat cells [2] = type: cell-based, human; conditions: 200 μM; remark: listed apart in the source
# HL-60 cells = test: Apoptosis in HL-60 cells, cytospin and Rapi-Diff staining
# [3] = target: T1, peripheral-type benzodiazepine receptor (PBR) (Homo sapiens, UniProt P30536); test: Radioligand binding assay, inhibition of [^3H]PK 11195 binding to HL-60 homogenates
# T1 construct: Cell homogenates (50 μg protein) were incubated with 0.5-50 nM [^3H]; PK 11195; endogenous in cells; host or cells: HL-60 cell homogenate
# Experimental: HL-60 cells were harvested by centrifugation at 600 g for 5 min and washing in phosphate-buffered saline. The resulting cell pellet was homogenised in 50 mM Tris/HCl buffer, pH 7.4 (2 ml), using an Ultraturrax homogeniser (10 sec) and then passed 5 times through a 21 gauge needle. Cell homogenates (50 μg protein) were incubated with 0.5-50 nM [^3H] PK 11195 in 50 mM Tris/HCl buffer, pH 7.4 (incubation buffer), in a total volume of 0.5 ml on ice. Total and non-specific/non-saturable binding in each case was determined in the absence and presence of 10 μM unlabelled PK 11195 respectively. All samples were incubated in triplicate for 60 min. The incubation mixtures were then filtered and counted as previously described (O'Beirne, et al., 1988). When testing the potency of a compound to inhibit [^3H] PK 11195 binding, samples were incubated with 2 nM [3H] PK 11195 and various concentrations (0.1 nM to 1 μM) of compound and subsequently treated exactly as above. The resulting Ki values were then generated by the use of the computer programs EBDA and LIGAND.
# The amount of radioactivity bound in the presence of the displacer was expressed as a percentage of control bonding and the values represent the mean±SEM of triplicate determinations from one representative experiment performed at least twice. The Ki values were obtained as described in Methods section.
# [4] = tested on: PARP (poly ADP-ribose polymerase); test: Western blot of PARP cleavage in Hela cells; type: cell-based, human
# Experimental: CML cells were seeded at 2×10^6 cells in 5 mls of growth medium, and treated with 10 μM PBOX-6 for 16 and 24 hr. Hela cells were seeded at 1×10^6 cells per 25 cm^2 flask. Following a 24 hour incubation, the cells were treated with PBOX-3 for a further 48 hours and the cells were scraped up. Cells were then centrifuged at 500 g for 5 min, the supernatant was removed and the pellet was resuspended in 200 μl of PARP sample buffer (62.5 mM Tris/HCl pH 6.8, 6 M urea, 10% (w/v) glycerol, 2% (w/v) SDS, 0.00125% bromophenol blue, and 5% (v/v) β-mercaptoethanol was added immediately before use). Samples were sonicated for 15 sec before aliquoting into 15 μl volumes. Samples were stored at −20° C. until use. 10-15 μl of thawed samples were resolved directly on a 10% polyacrylamide gel and transferred onto PVDF membrane at room temperature using wet transfer apparatus. After transfer, the membrane was blocked overnight in PBS containing 5% dry milk (Marvel). After blocking, the membrane was washed in PBST for 2×2 minutes before incubating for 1 hr with anti-PARP antibody (2 μg/ml in PBST containing 1% dry milk). Following incubation the membrane was washed for 20 minutes in PBST and incubated with goat anti mouse HRP conjugated secondary antibody (1:1000 dilution in PBST containing 1% dry milk). After washing in PBST for 30 minutes, ECL was used to visualise the proteins. […]
# T1 sequence (P30536 whole entry): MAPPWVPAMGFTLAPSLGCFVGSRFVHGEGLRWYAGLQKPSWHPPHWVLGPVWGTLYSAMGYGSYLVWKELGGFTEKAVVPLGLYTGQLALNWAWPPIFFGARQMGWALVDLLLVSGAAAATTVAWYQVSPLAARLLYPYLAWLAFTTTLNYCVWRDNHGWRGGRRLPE
smiles,measurement,setting,value
"C[C@@H](CN1CC(=O)NC(=O)C1)N1CC(=O)NC(=O)C1 [ICRF 187, reference compound]",effect of pretreatment on PBOX-6 induced apoptosis,K562 cells,reduced but did not completely inhibit
same,effect of Topo II inhibitor pretreatment on PBOX-6 induced JNK activation,JNK1 and JNK2,failed to prevent against PBOX-6 induced activation of JNK
same,effect of pretreatment on etoposide induced DNA strand breaks,Jurkat cells [1],prevented etoposide induced DNA strand breaks
same,effect of pretreatment on etoposide induced apoptosis,Jurkat cells [2],inhibited apoptosis induced by etoposide
"CC(=O)OC1=C(c2ccccc2)Oc2cc3ccccc3cc2-n2cccc21 [PBOX-3, 4-Acetoxy-5-phenylnaphto[2,3-b]pyrrolo[1,2-d][1,4]oxazepine]",degree of necrosis,"HL-60 cells; HL-60 cells, 10 μM, 16 hours",negligible
same,cytotoxicity at 10 µM,"HL-60 cells; Homo sapiens, HL-60, 16 h, read-out: % Apoptosis",23.5 ± 2.1%
same,Ki,[3],6 ± 1.9 nM
same,PARP cleavage,[4],induced PARP cleavage
